Where two headings read alike, the source gives them in different places. Positions of bridges follow the written chain, without caps; N, C: chain ends. Non-standard residues stand in square brackets, D forms with d. Residues, ends and D or L forms follow the SMILES beside them. No end group written: not given here. *: point of attachment. Lauroyl = CCCCCCCCCCCC(=O)*; Decanoyl = CCCCCCCCCC(=O)*; dNle = CCCC[C@@H](N)C(=O)O; X1 = CC[C@H](C)CCCCC(=O)*; Nle = CCCC[C@H](N)C(=O)O; Dab = NCC[C@H](N)C(=O)O
Columns and labels:
[1] = test system: Escherichia coli ATTC 25922; format: cell-based
Experimental: (§1) The minimal peptide concentration required to prevent the growth of a given test organism was determined after incubation overnight at 37 °C and was defined as the MIC. Activity was determined in representative bacteria, Escherichia coli ATTC 25922, Pseudomonas aeruginosa ATTC 27853, and Staphylococcus aureus ATTC 25923, using the broth microdilution method. Serial-two-fold dilutions of peptide (from 0.06 to 32 μg/mL) were performed in Mueller–Hinton broth (MHB) culture medium in sterile 96-well polypropylene microtiter plates inoculated with a final concentration of 5 × 10^5 CFU·mL^−1 of bacteria in each well. Bacteria were in the pre-exponential phase. Each determination was done by triplicate. In order to be considered acceptable, the three MIC results have to differ in only in one well, and the result was always given as the higher of the three. Drug-free and microorganism-free wells were used as positive and negative controls, respectively. Bacterial growth was visually determined on the basis of turbidity.

[2] = test system: Pseudomonas aeruginosa ATTC 27853; format: cell-based
Experimental: as §1

[3] = test system: Staphylococcus aureus ATTC 25923; format: cell-based
Experimental: as §1

[4] = test system: fresh rabbit erythrocytes; experiment: Hemolysis assay; format: cell-based; settings: 335 μM lipopeptide, 1 h at 37 °C, 10 mM Tris 80 mM NaCl pH 7.4, absorbance 540 nm, average of three independent experiments
Experimental: Hemolytic activity was evaluated on fresh rabbit erythrocytes collected in EDTA collection tubes, as previously described. Briefly, an erythrocite suspension in buffer (10 mM Tris, 80 mM NaCl pH 7.4) was obtained by centrifugation (three times, 10 min at 4000 rpm) and adjusted at an optical density of 1 at 540 nm. Aliquots of 200 µL were incubated for 1 h at 37 °C with the different lipopeptides in 96-well polypropylene microtiter plates and centrifuged (15 min, 5000 rpm). Lipopetide-induced hemolysis was determined by measuring the absorbance at 540 nm of released hemoglobin (Asample) in the supernatant. Each determination was done by triplicate, and as negative and positive controls, erythrocytes in buffer (A0%) and in distilled water (A100%) were employed, respectively. Hemolysis was calculated according the following equation: % hemolysis = 100 · (Asample − A0%/A100% − A0%).

[5] = Kinetics of insertion into monolayers; format: binding, Salmonella enterica serotype Minnesota Re 595; settings: initial pressure 32 mN·m^−1, peptide 0.48 μM, 25 min after injection, 10 mM Tris pH 7.4, 25 °C, average of three independent experiments (error < 10%)
Experimental: (§2) Monolayer studies were performed at room temperature (25 °C) on a monolayer system (NIMA Technology, Coventry, UK) by using a cylindrical PTFE (Teflon®, Wilmington, DE, USA) trough (5 cm diameter) containing a continuously stirred aqueous phase (12 mL, 10 mM Tris pH 7.4) and a Wilhelmy platinum plate connected to an electrobalance. The system was enclosed in a Plexiglass box to reduce surface contamination, and before each run, the plate and the trough were cleaned with hot water at >70 °C to avoid carryover of lipid or peptide. Monolayers of POPG, POPE/POPG (6:4), POPC, or LPS were formed by applying small drops of the lipid stock solutions in CHCl3 on the aqueous subphase with a microsyringe (Hamilton Co., Reno, NV, USA) to achieve a surface pressure of 32 mN·m^−1. After 10 min, allowing for solvent evaporation, a known aliquot of peptide was added without disturbance of the monolayer via an inlet port, and the surface pressure was continuously monitored.

[6] = Kinetics of insertion into monolayers; format: binding; settings: 25 min after injection, 10 mM Tris pH 7.4, 25 °C, average of three independent experiments (error < 10%); for Increase in surface pressure (Δπ), POPE/POPG: POPE/POPG 6:4, initial pressure 32 mN·m^−1, peptide 0.48 μM; for Increase in surface pressure (Δπ), POPC / Increase in surface pressure (Δπ), POPG: initial pressure 32 mN·m^−1, peptide 0.48 μM
Experimental: as §2

[7] = test system: Escherichia coli ATTC 25922; settings: cited from earlier work
Experimental: Table 1 Sequences and antimicrobial activities of the synthesized peptides determined as minimal inhibitory concentration (MIC) calculated for different bacteria strains. | column: MIC/µg mL^−1 (µM) / EC ^1 || Figure 3 Comparative TEM micrographs of P. aeruginosa (left) and E. coli (right). Untreated bacteria (a,b); bacteria treated with polymyxin analogues at 1xMIC: P. aeruginosa with spB-3 (4 μg·mL^−1) (c), or with of spE-10 (1 μg·mL^−1) (e); E. coli treated with spB-3 (2 μg·mL^−1) (d) or spE-10 (8 μg·mL^−1) (f). Lipopeptides cause the alteration of the membranes, with blebs protruding, loss of membrane, clear cytoplasmic zones, and even ghost cells. Similar results are obtained with natural PxB ((g,h), this last one is adapted from (Rabanal et al. Sci. Rep. 2015).

[8] = test system: Pseudomonas aeruginosa ATTC 27853; settings: cited from earlier work
Experimental: C6 analogues are devoid of antibacterial effect both against Gram-positive and Gram-negative bacteria, with MICs higher than 32 μg·mL^−1. C8 analogues show some activity, especially against P. aeruginosa but not on Gram-positive S. aureus. […] For example, MIC of 4 μg·mL^−1 and 2 μg·mL^−1 against P. aeruginosa for spB-3 and spE-3 respectively are obtained, where ... || Figure 3 Comparative TEM micrographs of P. aeruginosa (left) and E. coli (right). Untreated bacteria (a,b); bacteria treated with polymyxin analogues at 1xMIC: P. aeruginosa with spB-3 (4 μg·mL^−1) (c), or with of spE-10 (1 μg·mL^−1) (e); E. coli treated with spB-3 (2 μg·mL^−1) (d) or spE-10 (8 μg·mL^−1) (f). Lipopeptides cause the alteration of the membranes, with blebs protruding, loss of membrane, clear cytoplasmic zones, and even ghost cells. Similar results are obtained with natural PxB ((g,h), this last one is adapted from (Rabanal et al. Sci. Rep. 2015).

[9] = test system: Staphylococcus aureus ATTC 25923; settings: cited from earlier work
Experimental: C6 analogues are devoid of antibacterial effect both against Gram-positive and Gram-negative bacteria, with MICs higher than 32 μg·mL^−1. C8 analogues show some activity, especially against P. aeruginosa but not on Gram-positive S. aureus. […] For example, MIC of 4 μg·mL^−1 and 2 μg·mL^−1 against P. aeruginosa for spB-3 and spE-3 respectively are obtained, where ... || Since some of the polymyxin analogues also have good activities against S. aureus, the effects on the cell morphology of this Gram-positive bacteria were determined.

[10] = broth microdilution, MHB, 5 × 10^5 CFU/mL, overnight 37 °C, triplicate, higher of the three
[11] = value in brackets, broth microdilution, MHB, overnight 37 °C, triplicate
[12] = taken from the literature (analogues #37, #38, #39)
[13] = value in brackets, taken from the literature

Compound	MIC EC [1, 10] [µg/mL]	MIC EC [1, 11] [µM]	MIC PA [2, 10] [µg/mL]	MIC PA [2, 11] [µM]	MIC SA [3, 10] [µg/mL]	MIC SA [3, 11] [µM]	hemolysis [4] [%]	Increase in surface pressure (Δπ), LPS [5] [mN·m^−1]	Increase in surface pressure (Δπ), POPE/POPG [6] [mN·m^−1]	Increase in surface pressure (Δπ), POPC [6] [mN·m^−1]	Increase in surface pressure (Δπ), POPG [6] [mN·m^−1]	MIC EC ([1]; ATTC 25922) [µM]	MIC PA ([2]; ATTC 27853) [µM]	MIC SA ([3]; ATTC 25923) [µM]	MIC EC [7, 12] [µg/mL]	MIC EC [7, 13] [µM]	MIC PA [8, 12] [µg/mL]	MIC PA [8, 13] [µM]	MIC SA [9, 12] [µg/mL]	MIC SA [9, 13] [µM]
CC[C@H](C)CCCCC(=O)N[C@@H](CCN)C(=O)N[C@H](C(=O)N[C@@H](CCN)C(=O)N[C@H]1CCNC(=O)[C@H]([C@@H](C)O)NC(=O)[C@H](CCN)NC(=O)[C@H](CCN)NC(=O)[C@H](CC(C)C)NC(=O)[C@@H](Cc2ccccc2)NC(=O)[C@H](CCN)NC1=O)[C@@H](C)O [PxB, Polymyxin B, reference compound] (X1-[Dab]T[Dab][Dab][Dab][dF]L[Dab][Dab]T; lactam 4-C)	1	0.83	0.5	0.42	> 32	> 27	18	11.4	7.2	1.4	5.9									
CCCCCCCCCC(=O)N[C@@H](CCN)C(=O)N[C@H](C(=O)N[C@@H](CCN)C(=O)N[C@H]1CSSC[C@H](C(N)=O)NC(=O)[C@H](CCN)NC(=O)[C@H](CCN)NC(=O)[C@H](CC(C)C)NC(=O)[C@@H](CC(C)C)NC(=O)[C@H](CCN)NC1=O)[C@@H](C)O [spE-3] (Decanoyl-[Dab]T[Dab]C[Dab][dL]L[Dab][Dab][dC]-NH2; disulfide 4-10)	8		2		8			10.0	7.9	1.3	5.7	6.7	1.7	6.7						
CCCCCCCCCCCC(=O)N[C@@H](CCN)C(=O)N[C@H](C(=O)N[C@@H](CCN)C(=O)N[C@H]1CSSC[C@H](C(N)=O)NC(=O)[C@H](CCN)NC(=O)[C@H](CCN)NC(=O)[C@H](CC(C)C)NC(=O)[C@@H](CC(C)C)NC(=O)[C@H](CCN)NC1=O)[C@@H](C)O [spE-4] (Lauroyl-[Dab]T[Dab]C[Dab][dL]L[Dab][Dab][dC]-NH2; disulfide 4-10)	8		1		8			11.4	9.1	2.1	5.8	6.5	0.81	6.5						
CCCCCCCCCC(=O)N[C@@H](CCN)C(=O)N[C@H](C(=O)N[C@@H](CCN)C(=O)N[C@H]1CSSC[C@H](C(N)=O)NC(=O)[C@H](CCN)NC(=O)[C@H](CCN)NC(=O)[C@H](CCCC)NC(=O)[C@@H](CCCC)NC(=O)[C@H](CCN)NC1=O)[C@@H](C)O [spE-7] (Decanoyl-[Dab]T[Dab]C[Dab][dNle][Nle][Dab][Dab][dC]-NH2; disulfide 4-10)	2		2	1.7	8	6.7		14.2	6.8	1.4	8.2	1.7								
CCCCCCCCCCCC(=O)N[C@@H](CCN)C(=O)N[C@H](C(=O)N[C@@H](CCN)C(=O)N[C@H]1CSSC[C@H](C(N)=O)NC(=O)[C@H](CCN)NC(=O)[C@H](CCN)NC(=O)[C@H](CCCC)NC(=O)[C@@H](CCCC)NC(=O)[C@H](CCN)NC1=O)[C@@H](C)O [spE-8] (Lauroyl-[Dab]T[Dab]C[Dab][dNle][Nle][Dab][Dab][dC]-NH2; disulfide 4-10)	4		4		4			12.5	9.8	1.3	7.4	3.3	3.3	3.3						
Decanoyl-[Dab]T[Dab]C[Dab]F[Nle][Dab][Dab]C (disulfide 4-10 (inferred)) [spB-7, Series II-PxB analogue, decanoyl, Nle in position 7]								9.3	6.5	2.1	4.2				2	1.6	1	0.81	4	3.2

— publication PMC8708274, “Unveiling the Membrane and Cell Wall Action of Antimicrobial Cyclic Lipopeptides: Modulation of the Spectrum of Activity” (Pharmaceutics, 2021)
